Where no end group is shown, it is not given here.
Target: RyR2 (Rattus norvegicus, UniProt B0LPN4)
Test: Steady-state F-DPc10 binding at the Z-line of saponin-permeabilized myocytes (confocal)
Parameters: endogenous in cells; host or cells: saponin-permeabilized adult rat ventricular myocytes
Procedure: Rat ventricular myocytes were isolated and permeabilized as previously described (Li et al., Circ Res, 2002; 90:309-316). All procedures were performed according to the Guiding Principles in the Care and Use of the Animals and were approved by the Council of American Physiological Society. DPc10, FKBP12.6, and CaM were labeled at specific sites with small fluorescence probes, similar to our previous studies (Guo et al., Circ Res, 2010; 106:1743-1752; Cornea et al., PNAS USA, 2009; 106:6128-6133; Guo et al., Biophys J, 2011; 101:2170-2177).
Confocal images was measured using a Biorad RADIANCE2100™ laser scanning confocal microscope equipped with an Argon ion laser, Green HeNe laser and with a Nikon Fluo x40 oil lens. FRET (fluorescence resonance energy transfer) experiments between CaM and DPc10, and FKBP12.6 and DPc10 were performed using an Olympus FV1000 confocal microscope. All experiments were done at room temperature.
Myocytes were exposed to […] F-DPc10, with intracellular [Ca^2+] ([Ca^2+]i) set at 50 nmol/L. F-DPc10 fluorescence is highest at the Z-lines, where RyR2 is concentrated, forming a typical cross-striated pattern. The difference between fluorescence intensity at the Z-line (Fz) and M-line (FM) is taken to represent [F-DPc10] specifically bound at the myocyte Z-line. We calibrated the bound [F-DPc10] in permeabilized myocytes using the linear relationship between F-DPc10 fluorescence and bath [F-DPc10] (FIG. 7B). […] To further test whether this Z-line-associated F-DPc10 represents RyR2-bound F-DPc10, we measured FRET between FKBP12.6 (known to specifically bind to RyR2 with subnanomolar affinity) (Guo et al., Circ Res, 2010; 106:1743-1752) and F-DPc10. […] Donor (AF568-FKBP12.6) fluorescence at the Z-line was quenched by HF647-DPc10, but the M-line signal was not (FIG. 9B). […]

Sequence of RyR2 (B0LPN4 whole entry): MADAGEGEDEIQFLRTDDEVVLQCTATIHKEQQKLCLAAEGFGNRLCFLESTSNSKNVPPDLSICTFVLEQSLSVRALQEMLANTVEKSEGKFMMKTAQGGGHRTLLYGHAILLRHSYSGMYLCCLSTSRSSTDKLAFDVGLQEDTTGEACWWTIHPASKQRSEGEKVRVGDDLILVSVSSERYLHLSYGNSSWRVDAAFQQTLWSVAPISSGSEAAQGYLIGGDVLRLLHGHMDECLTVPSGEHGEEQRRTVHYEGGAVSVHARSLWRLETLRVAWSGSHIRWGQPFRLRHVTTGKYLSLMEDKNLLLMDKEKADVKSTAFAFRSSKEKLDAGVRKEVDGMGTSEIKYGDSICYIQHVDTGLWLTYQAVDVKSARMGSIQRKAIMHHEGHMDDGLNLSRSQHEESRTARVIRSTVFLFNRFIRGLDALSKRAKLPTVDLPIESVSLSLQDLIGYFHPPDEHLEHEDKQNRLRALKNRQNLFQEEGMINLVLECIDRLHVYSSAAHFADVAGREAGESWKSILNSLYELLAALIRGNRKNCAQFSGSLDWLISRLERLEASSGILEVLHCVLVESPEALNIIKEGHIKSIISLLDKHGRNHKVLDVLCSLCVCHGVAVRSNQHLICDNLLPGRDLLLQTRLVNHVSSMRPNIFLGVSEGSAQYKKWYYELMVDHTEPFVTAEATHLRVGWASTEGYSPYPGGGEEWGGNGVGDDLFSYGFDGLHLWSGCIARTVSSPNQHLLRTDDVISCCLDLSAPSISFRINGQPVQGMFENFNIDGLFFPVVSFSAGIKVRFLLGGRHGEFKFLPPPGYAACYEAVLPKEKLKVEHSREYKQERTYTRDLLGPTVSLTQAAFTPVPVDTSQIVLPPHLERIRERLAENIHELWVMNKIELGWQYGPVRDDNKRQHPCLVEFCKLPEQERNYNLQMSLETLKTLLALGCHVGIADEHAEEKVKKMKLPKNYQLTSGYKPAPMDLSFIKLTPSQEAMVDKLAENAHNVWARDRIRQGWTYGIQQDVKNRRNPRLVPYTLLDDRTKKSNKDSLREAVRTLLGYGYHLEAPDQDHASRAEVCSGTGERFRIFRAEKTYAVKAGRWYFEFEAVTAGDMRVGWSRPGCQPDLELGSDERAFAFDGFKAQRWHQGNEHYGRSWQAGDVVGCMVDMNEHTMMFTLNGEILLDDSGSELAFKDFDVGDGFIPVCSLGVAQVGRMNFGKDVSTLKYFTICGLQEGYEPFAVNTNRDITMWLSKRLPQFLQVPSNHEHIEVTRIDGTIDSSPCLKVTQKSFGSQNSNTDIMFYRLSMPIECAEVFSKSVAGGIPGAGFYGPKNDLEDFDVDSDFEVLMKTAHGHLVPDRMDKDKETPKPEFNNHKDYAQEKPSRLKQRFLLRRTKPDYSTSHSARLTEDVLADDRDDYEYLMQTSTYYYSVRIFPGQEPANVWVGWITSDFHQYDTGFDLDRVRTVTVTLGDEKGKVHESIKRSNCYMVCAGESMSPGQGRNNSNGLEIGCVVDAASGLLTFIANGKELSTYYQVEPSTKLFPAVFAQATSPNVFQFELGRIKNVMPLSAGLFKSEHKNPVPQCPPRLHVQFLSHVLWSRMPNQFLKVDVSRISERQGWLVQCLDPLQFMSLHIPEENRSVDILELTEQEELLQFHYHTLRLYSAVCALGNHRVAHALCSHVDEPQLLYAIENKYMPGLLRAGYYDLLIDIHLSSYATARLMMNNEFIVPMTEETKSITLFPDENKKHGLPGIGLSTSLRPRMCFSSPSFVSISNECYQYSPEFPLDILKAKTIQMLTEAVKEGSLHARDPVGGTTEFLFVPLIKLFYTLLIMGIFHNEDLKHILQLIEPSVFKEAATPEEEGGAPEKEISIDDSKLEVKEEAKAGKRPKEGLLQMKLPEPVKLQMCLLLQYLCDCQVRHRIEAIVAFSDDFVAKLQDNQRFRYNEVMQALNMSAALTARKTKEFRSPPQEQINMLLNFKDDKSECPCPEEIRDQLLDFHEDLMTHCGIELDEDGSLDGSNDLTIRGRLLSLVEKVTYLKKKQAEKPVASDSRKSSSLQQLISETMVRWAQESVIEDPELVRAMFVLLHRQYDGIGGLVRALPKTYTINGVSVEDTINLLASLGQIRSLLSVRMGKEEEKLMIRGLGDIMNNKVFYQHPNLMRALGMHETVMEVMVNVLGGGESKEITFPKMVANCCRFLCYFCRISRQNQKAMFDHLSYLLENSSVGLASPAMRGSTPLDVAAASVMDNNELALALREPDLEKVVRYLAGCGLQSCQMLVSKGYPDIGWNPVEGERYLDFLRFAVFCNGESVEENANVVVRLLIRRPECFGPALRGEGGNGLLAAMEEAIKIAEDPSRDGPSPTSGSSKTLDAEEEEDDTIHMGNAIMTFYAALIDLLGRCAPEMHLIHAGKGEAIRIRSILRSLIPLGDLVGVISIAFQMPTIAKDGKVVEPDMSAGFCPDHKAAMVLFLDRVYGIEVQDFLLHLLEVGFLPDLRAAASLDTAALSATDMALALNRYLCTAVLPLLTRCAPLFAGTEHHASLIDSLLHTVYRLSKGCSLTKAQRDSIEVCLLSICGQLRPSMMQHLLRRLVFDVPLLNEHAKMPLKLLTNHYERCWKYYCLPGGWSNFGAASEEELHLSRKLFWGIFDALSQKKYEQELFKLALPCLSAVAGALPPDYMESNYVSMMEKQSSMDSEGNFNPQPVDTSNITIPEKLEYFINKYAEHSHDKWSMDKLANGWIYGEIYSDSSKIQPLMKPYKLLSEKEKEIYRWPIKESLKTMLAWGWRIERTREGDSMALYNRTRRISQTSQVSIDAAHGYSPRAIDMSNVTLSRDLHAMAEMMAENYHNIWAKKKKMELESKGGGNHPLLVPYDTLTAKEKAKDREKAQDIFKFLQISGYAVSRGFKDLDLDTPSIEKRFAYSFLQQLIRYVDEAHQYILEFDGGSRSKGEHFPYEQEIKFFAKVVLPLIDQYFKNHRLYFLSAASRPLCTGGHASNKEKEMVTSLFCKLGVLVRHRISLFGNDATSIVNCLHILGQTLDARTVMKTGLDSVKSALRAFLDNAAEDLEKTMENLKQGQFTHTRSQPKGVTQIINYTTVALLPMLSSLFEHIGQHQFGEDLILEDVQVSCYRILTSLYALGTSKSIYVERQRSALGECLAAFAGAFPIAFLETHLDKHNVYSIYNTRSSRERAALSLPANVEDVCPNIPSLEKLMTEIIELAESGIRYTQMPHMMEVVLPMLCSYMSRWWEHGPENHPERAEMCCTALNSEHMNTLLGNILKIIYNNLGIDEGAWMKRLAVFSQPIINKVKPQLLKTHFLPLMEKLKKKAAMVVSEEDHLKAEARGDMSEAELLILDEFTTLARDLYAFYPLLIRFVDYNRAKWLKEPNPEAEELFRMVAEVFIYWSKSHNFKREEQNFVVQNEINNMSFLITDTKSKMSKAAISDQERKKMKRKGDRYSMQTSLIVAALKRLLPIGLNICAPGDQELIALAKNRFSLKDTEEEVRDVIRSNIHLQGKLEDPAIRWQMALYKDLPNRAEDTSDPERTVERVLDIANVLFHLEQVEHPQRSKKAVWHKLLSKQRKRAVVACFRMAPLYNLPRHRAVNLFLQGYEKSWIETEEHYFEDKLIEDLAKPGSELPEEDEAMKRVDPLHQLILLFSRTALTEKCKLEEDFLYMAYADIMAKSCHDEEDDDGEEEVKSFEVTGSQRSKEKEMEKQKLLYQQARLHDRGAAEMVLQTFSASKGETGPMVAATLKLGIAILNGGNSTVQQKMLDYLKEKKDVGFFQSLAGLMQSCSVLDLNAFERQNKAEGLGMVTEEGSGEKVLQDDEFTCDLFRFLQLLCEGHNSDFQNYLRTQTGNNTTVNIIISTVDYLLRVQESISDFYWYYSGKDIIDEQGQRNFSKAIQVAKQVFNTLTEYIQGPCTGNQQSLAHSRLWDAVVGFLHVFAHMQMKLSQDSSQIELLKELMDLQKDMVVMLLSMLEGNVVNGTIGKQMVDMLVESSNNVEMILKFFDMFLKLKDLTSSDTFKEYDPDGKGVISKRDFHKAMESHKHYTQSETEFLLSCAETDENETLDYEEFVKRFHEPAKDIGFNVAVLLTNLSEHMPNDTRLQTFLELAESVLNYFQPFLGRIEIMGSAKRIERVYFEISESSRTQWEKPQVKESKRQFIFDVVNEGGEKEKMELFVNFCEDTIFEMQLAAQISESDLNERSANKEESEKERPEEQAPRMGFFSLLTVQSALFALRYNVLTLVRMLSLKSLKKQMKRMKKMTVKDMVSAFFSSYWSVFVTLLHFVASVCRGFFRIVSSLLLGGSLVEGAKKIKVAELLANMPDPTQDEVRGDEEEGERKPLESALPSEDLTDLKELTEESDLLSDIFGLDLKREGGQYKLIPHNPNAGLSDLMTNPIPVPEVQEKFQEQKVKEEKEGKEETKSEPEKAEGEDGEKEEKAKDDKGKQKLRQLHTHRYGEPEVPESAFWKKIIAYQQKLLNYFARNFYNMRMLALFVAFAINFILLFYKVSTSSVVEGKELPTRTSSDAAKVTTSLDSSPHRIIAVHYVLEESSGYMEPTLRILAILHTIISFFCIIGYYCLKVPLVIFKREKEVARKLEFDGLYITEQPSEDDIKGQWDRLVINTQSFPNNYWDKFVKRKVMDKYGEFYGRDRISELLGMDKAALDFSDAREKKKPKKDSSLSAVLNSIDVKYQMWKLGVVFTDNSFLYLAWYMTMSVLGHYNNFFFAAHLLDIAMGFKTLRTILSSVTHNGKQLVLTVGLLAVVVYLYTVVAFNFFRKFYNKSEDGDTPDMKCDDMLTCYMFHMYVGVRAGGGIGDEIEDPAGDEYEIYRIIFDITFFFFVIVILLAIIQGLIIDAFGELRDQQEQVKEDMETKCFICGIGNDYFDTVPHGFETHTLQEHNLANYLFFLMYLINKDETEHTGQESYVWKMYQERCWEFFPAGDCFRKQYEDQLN

GFCPDHKAAMVLFLDRVYGIEVQDFLLHLLEVGFLP [DPc10]
Kd: ~0.5 µM | Bmax value (summary in Discussion): 1.6 µmol/L

Reference: US10281476B2, “Methods to identify modulators of RyR calcium channels” (REGENTS OF THE UNIVERSITY OF MINNESOTA, priority 2013, dated 2019)
